pIC50: −log10 of the molar value.

Common to all, as to format: biochemical
Experiment [1] has as its target T1, PTPN2 (Homo sapiens, UniProt P17706).
T1 construct: full length human PTPN2 (TC45 variant), 6xHis-tagged
T1 sequence (P17706 1-381 limits assumed): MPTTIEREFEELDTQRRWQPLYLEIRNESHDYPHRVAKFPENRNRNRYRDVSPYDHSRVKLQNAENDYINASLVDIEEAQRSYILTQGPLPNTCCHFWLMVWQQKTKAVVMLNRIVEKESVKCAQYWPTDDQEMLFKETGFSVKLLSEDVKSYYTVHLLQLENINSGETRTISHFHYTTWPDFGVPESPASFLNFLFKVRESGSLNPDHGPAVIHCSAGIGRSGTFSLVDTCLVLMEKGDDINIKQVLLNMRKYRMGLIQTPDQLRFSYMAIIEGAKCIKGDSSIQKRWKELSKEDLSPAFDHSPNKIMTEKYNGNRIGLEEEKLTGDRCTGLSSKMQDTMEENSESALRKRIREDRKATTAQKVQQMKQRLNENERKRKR
In words: RP-UFLC phosphatase assay with FAM-pStat1 peptide.

Experiment [2] deals with T1, PTPN2. Nature of the experiment: dephosphorylation of chromogenic substrate by purified enzyme.
For experiment [3], the target named is T1, PTPN2. In words: RP-UFLC phosphatase assay with FAM-pStat1 peptide; time- and concentration-dependent inactivation kinetics (ki […] ^-1 min^-1).

One may read the pIC50 as the IC50 on a negative log10 scale, so that one unit is a factor of ten. At PTPN2 [1], `[O]=[V]([OH])([OH])[OH]` [orthovanadate] gave a pIC50 of roughly 6.00.

`O=[N+]([O-])c1ccc(OP(=O)(O)O)cc1` [pNPP, p-nitrophenyl phosphate]: the “dephosphorylation of chromogenic substrate by purified enzyme” value on PTPN2 [2] is “Purified PTPN2 was functional as demonstrated by the dephosphorylation of the non-proteinaceous and non-specific chromogenic substrate p-nitrophenyl phosphate (pNPP)”.

For `C=CS(=O)(=O)Oc1ccccc1` [PVSN, phenyl vinyl sulfonate], the negative-log IC50 (pIC50) on PTPN2 [3] was 3.74.

The values above are taken from PMC4455150, “A RP-UFLC Assay for Protein Tyrosine Phosphatases: Focus on Protein Tyrosine Phosphatase Non-Receptor Type 2 (PTPN2)” (Scientific Reports, 2015).
